Data from paper PMC5938026 (Experimental & Molecular Medicine, 2018).

Molecular target: Kv1.5 (Rattus norvegicus, UniProt P19024)
Experiment: whole-cell patch clamp of CHO cells overexpressing Kv1.[…]
Type: cell-based

Chain of Kv1.5 (P19024 whole entry): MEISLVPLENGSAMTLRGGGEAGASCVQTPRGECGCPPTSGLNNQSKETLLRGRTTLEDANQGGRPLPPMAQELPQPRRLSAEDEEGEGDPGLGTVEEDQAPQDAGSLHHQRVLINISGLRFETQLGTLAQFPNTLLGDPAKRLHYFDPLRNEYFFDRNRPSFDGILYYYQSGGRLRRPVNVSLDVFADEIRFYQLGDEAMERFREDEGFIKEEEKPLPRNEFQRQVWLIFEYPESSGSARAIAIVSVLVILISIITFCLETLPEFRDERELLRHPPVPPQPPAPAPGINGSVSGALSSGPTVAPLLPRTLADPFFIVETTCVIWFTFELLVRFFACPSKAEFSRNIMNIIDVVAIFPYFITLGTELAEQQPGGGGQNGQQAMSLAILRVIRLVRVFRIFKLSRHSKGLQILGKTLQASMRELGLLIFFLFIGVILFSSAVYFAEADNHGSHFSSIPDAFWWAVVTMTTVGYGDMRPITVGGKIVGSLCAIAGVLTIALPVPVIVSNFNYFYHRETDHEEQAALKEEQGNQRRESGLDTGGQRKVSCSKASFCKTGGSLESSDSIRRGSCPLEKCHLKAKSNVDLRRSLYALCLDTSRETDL

SMILES	IC50 [µM]
CNC1(c2ccccc2Cl)CCCCC1=O (racemic) [ketamine]	641 ± 33.2
C[C@]12N[C@H](Cc3ccccc31)c1ccccc12 [(+) MK801]	157 ± 14
C[C@@]12N[C@@H](Cc3ccccc31)c1ccccc12 [(−) MK801]	157 ± 7.9
